Assay results taken from patent US20070270464A1, “PRODRUGS OF CURCUMIN ANALOGS” (priority 2006, published 2007).

Key:
[1] = Photostability: appearance of aqueous solution under room light; format: physicochemical; details: EF24-GSH: after 48 hours under room light; EF24: diluted aqueous solution, overnight
[2] = background statement; cited from earlier work
tumor cell growth = details: background statement; cited from earlier work
[3] = tested on: DU-145 human prostate cancer cells; details: DU-145 cells, background statement; cited from earlier work
[4] = background statement; cited from earlier work; remark: listed apart in the source
[5] = tested on: MDA-MB-231 human breast cancer cells; details: MDA-MB-231 cells, background statement; cited from earlier work
[6] = tested on: MDA-MB-435 breast cancer cells; assay: Photostability: cytotoxicity of solutions kept under room light, Neutral Red assay; format: cell-based, human; details: EF24-GSH: 10 mM in sterile water, up to 48 hours under room light, FIG. 3; EF24: diluted aqueous solution, overnight
Procedure: MDA-MB-435 breast cancer cells were seeded at 2×10^4 per well in a 96-well plate with DMEM medium supplemented with 10% FBS, plus antibiotics penicillin and streptomycin. After 24 hours, cells were treated with EF24-GSH in the presence of the above growth medium. EF24-GSH solutions were made fresh at 10 mM with sterile water and placed under room light in clear Eppendorf tubes for 30 min, 24 hours and 48 hours, respectively, before adding to the cells. Cell viability was determined after 48 hours of treatment with EF24-GSH conjugate using the Neutral Red assay.

colour of the solution under room light [1]: turns dark overnight
SMILES: CC(=O)O.O=C1C(=Cc2ccccc2F)CNCC1=Cc1ccccc1F [EF24, 3,5-Bis-(2-fluorobenzylidene)-piperidin-4-one, acetic acid salt]
toxicity [2]: relatively little toxicity | inhibition of tumor cell growth, potency compared with cisplatin (tumor cell growth): higher potency than cisplatin | cell cycle arrest [3]: G2/M arrest | photostability [4]: poor photostability | water solubility [4]: relatively insoluble in water | cell cycle arrest [5]: G2/M arrest | cytotoxicity after exposure of the solution to room light [6]: severely compromised
